According to the NIST ThermoML archive (doi:10.1016/j.jct.2005.02.004):

Settings: Liquid, Vibrating tube method

CO [methanol]
Settings	mass density [kg/m3]
298.26 K, 235 kPa	785.98
298.26 K, 5000 kPa	790.69
298.26 K, 9999 kPa	795.4
298.26 K, 15013 kPa	799.88
298.26 K, 19987 kPa	804.1
298.26 K, 25008 kPa	808.17
298.26 K, 29997 kPa	812.04
298.26 K, 34991 kPa	815.76
298.26 K, 39981 kPa	819.34
323.22 K, 270 kPa	762.14
323.22 K, 4990 kPa	767.53
323.22 K, 9984 kPa	772.87
323.22 K, 14982 kPa	777.91
323.22 K, 19989 kPa	782.69
323.22 K, 24986 kPa	787.21
323.22 K, 29995 kPa	791.53
323.22 K, 34987 kPa	795.64
323.22 K, 39993 kPa	799.6
348.25 K, 366 kPa	737.29
348.25 K, 4987 kPa	743.46
348.25 K, 9986 kPa	749.65
348.25 K, 14991 kPa	755.42
348.25 K, 20004 kPa	760.84
348.25 K, 25020 kPa	765.94
348.25 K, 30013 kPa	770.76
348.25 K, 34989 kPa	775.32
348.25 K, 40000 kPa	779.7
373.26 K, 534 kPa	710.55
373.26 K, 4983 kPa	717.67
373.26 K, 9990 kPa	724.99
373.26 K, 14998 kPa	731.69
373.26 K, 19985 kPa	737.88
373.26 K, 24994 kPa	743.68
373.26 K, 29997 kPa	749.13
373.26 K, 35001 kPa	754.27
373.26 K, 39996 kPa	759.14
398.28 K, 934 kPa	680.93
398.28 K, 4984 kPa	689
398.28 K, 9998 kPa	697.91
398.28 K, 14986 kPa	705.88
398.28 K, 19987 kPa	713.16
398.28 K, 24992 kPa	719.87
398.28 K, 29991 kPa	726.11
398.28 K, 35005 kPa	731.99
398.28 K, 40004 kPa	737.47
